Patent US20200131156A1, “ARYLSULFONYLPYROLECARBOXAMIDE DERIVATIVES AS Kv3 POTASSIUM CHANNEL ACTIVATORS” (H. Lundbeck A/S, priority 2018, published 2020)

Biological target: T1, hKv3.1b (Homo sapiens, UniProt P48547)
T1 construct: expressed in transfected cells
T1 sequence (P48547 1-585 isoform P48547-2): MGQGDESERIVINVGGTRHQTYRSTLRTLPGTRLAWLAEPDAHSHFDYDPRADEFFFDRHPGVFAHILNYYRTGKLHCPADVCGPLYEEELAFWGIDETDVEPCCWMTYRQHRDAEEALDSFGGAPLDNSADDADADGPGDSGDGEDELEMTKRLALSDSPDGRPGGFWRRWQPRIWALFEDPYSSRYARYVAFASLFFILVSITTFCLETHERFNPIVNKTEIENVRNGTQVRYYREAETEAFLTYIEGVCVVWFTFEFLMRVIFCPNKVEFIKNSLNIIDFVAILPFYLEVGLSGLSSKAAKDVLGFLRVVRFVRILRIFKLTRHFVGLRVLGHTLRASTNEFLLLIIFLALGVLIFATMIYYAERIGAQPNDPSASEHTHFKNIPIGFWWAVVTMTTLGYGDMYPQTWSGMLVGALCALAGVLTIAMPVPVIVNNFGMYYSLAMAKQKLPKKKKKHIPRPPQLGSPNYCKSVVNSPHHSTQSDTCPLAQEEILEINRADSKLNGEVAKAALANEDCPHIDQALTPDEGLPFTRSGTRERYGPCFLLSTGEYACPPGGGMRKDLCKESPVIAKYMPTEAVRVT
Assay: Automated patch clamp (QPatch-16x) on HEK-293 cells stably expressing hKv3.1b
Format: cell-based
Details: for ECdelta5 mV: concentration needed to shift the activation threshold 5 mV; for Threshold Shift: maximum absolute hyperpolarizing shift of activation threshold at tested concentrations 0.37-30 μM
Method: HEK-293 cells stably expressing hKv3.1b were used for the experiments. Cells were cultured in DMEM medium supplemented with 10% Fetal Bovine Serum, 100 ug/mL Geneticidin and 100 u/mL Penicillin/Streptomycin (all from Gibco). Cells were grown to 80-90% confluency at 37° C. and 5% CO2. On the day of the experiment the cells were detached from the tissue culture flasks by Detachin, resuspended in serum free medium containing 25 mM HEPES and transferred to the cell hotel of the QPatch. The cells were used for experiments 0-5 hours after detachment.
Patch-clamp recordings were performed using the automated recording system QPatch-16x (Sophion Bioscience, Denmark). Cells were centrifuged, SFM removed and the cells were resuspended in extracellular buffer containing (in mM): 145 NaCl, 4 KCl, 1 MgCl2, 2 CaCl2, 10 HEPES and 10 glucose (added fresh on the day of experiment); pH 7.4 adjusted with NaOH, 305 mOsm adjusted with sucrose.
Single cell whole-cell recordings were carried out using an intracellular solution containing (in mM): 120 KCl, 32.25/10 KOH/EGTA, 5.374 CaCl2, 1.75 MgCl2, 10 HEPES, 4 Na2ATP (added fresh on the day), pH 7.2 adjusted with KOH, […] adjusted with sucrose. Cell membrane potentials were held at −80 mV and currents were evoked by voltage steps (200 ms duration) from −70 mV to +10 mV (in 10 mV increments). Vehicle (0.33% DMSO) or increasing concentration of compound (I) were applied and the voltage protocol was run 3 times (resulting in 3 min cpd incubation time). Five increasing concentrations of compound (I) were applied to each cell.
Leak subtraction protocol was applied at −33% of the sweep amplitude, and serial resistance values were constantly monitored.
Any cell where serial resistance exceeded 25 MOhm, membrane resistance less than 200 MOhm or current size at −10 mV less than 200 pA was eliminated from the subsequent analysis.
Data analysis was performed using Sophion's QPatch assay software in combination with Microsoft Excel™ (Redmond, Wash., USA). Current voltage relationships were plotted from the peak current at the individual voltage steps normalized to the vehicle addition at 10 mV. The voltage threshold for channel activation was defined as 5% activation of the peak current at 10 mV in presence of vehicle. The activity of the compounds was described as the ability to shift this current voltage relationship to more hyperpolarized potentials and is given as the maximum absolute shift possible at the tested concentrations (0.37, 1.11, 3.33, 10, 30 μM). Concentration response curves were plotted from the threshold shift at the individual concentrations and were fitted excel fit model 205 sigmoidal dose-response model (fit=A+((B−A)/1+((C/x)^D)))), where A is the minimum value, B the maximum value, C the EC50 value and D the slope of the curve. The concentration needed to shift the threshold 5 mV was readout from this curve (ECdelta5 mV).

Row | Compound | ECdelta5 mV | Threshold Shift
1 | Cc1cnc(CNC(=O)c2ccn(S(=O)(=O)c3cccc(C)c3)c2)nc1 [Compound 62, 1-(3-methylbenzene-1-sulfonyl)-N-[(5-methylpyrimidin-2-yl)methyl]-1H-pyrrole-3-carboxamide] | 4900 nM | 12 mV
2 | Cn1ccc(CNC(=O)c2ccn(S(=O)(=O)c3ccc(F)cc3)c2)n1 [Compound 63, 1-(4-fluorobenzene-1-sulfonyl)-N-[(1-methyl-1H-pyrazol-3-yl)methyl]-1H-pyrrole-3-carboxamide] | 2200 nM | 13 mV
3 | O=C(NCc1cnccn1)c1ccn(S(=O)(=O)c2ccc(F)cc2)c1 [Compound 64, 1-(4-fluorobenzene-1-sulfonyl)-N-[(pyrazin-2-yl)methyl]-1H-pyrrole-3-carboxamide] | 4400 nM | 13 mV
4 | Cc1noc(CNC(=O)c2ccn(S(=O)(=O)c3ccc(F)cc3)c2)n1 [Compound 65, 1-(4-fluorobenzene-1-sulfonyl)-N-[(3-methyl-1,2,4-oxadiazol-5-yl)methyl]-1H-pyrrole-3-carboxamide] | 4200 nM | 14 mV
5 | COc1ccc(S(=O)(=O)n2ccc(C(=O)NCc3ccn(C)n3)c2)cc1 [Compound 66, 1-(4-methoxybenzene-1-sulfonyl)-N-[(1-methyl-1H-pyrazol-3-yl)methyl]-1H-pyrrole-3-carboxamide] | 1400 nM | 18 mV
6 | COc1ccc(S(=O)(=O)n2ccc(C(=O)NCc3cnccn3)c2)cc1 [Compound 67, 1-(4-methoxybenzene-1-sulfonyl)-N-[(pyrazin-2-yl)methyl]-1H-pyrrole-3-carboxamide] | 2200 nM | 23 mV
7 | COc1ccc(S(=O)(=O)n2ccc(C(=O)NCc3nc(C)no3)c2)cc1 [Compound 68, 1-(4-methoxybenzene-1-sulfonyl)-N-[(3-methyl-1,2,4-oxadiazol-5-yl)methyl]-1H-pyrrole-3-carboxamide] | 2300 nM | 21 mV
8 | COc1ccc(S(=O)(=O)n2ccc(C(=O)NCc3cnn(C)c3)c2)cc1 [Compound 69, 1-(4-methoxybenzene-1-sulfonyl)-N-[(1-methyl-1H-pyrazol-4-yl)methyl]-1H-pyrrole-3-carboxamide] | 3000 nM | 18 mV
9 | COc1ccc(S(=O)(=O)n2ccc(C(=O)NCc3ccc(C)cn3)c2)cc1 [Compound 70, 1-(4-methoxybenzene-1-sulfonyl)-N-[(5-methylpyridin-2-yl)methyl]-1H-pyrrole-3-carboxamide] | 1100 nM | 17 mV
10 | COc1ccc(S(=O)(=O)n2ccc(C(=O)NCc3cc(C)no3)c2)cc1 [Compound 71, 1-(4-methoxybenzene-1-sulfonyl)-N-[(3-methyl-1,2-oxazol-5-yl)methyl]-1H-pyrrole-3-carboxamide] | 1800 nM | 19 mV
11 | COc1ccc(S(=O)(=O)n2ccc(C(=O)NCc3ncc(C)cn3)c2)cc1 [Compound 72, 1-(4-methoxybenzene-1-sulfonyl)-N-[(5-methylpyrimidin-2-yl)methyl]-1H-pyrrole-3-carboxamide] | 2800 nM | 20 mV
12 | COc1ccc(S(=O)(=O)n2ccc(C(=O)NCc3ncc(C)o3)c2)cc1 [Compound 73, 1-(4-methoxybenzene-1-sulfonyl)-N-[(5-methyl-1,3-oxazol-2-yl)methyl]-1H-pyrrole-3-carboxamide] | 2100 nM | 13 mV
13 | Cc1ccccc1S(=O)(=O)n1ccc(C(=O)NCc2ccn(C)n2)c1 [Compound 74, 1-(2-methylbenzene-1-sulfonyl)-N-[(1-methyl-1H-pyrazol-3-yl)methyl]-1H-pyrrole-3-carboxamide] | 2100 nM | 21 mV
14 | Cc1noc(CNC(=O)c2ccn(S(=O)(=O)c3ccccc3C)c2)n1 [Compound 75, 1-(2-methylbenzene-1-sulfonyl)-N-[(3-methyl-1,2,4-oxadiazol-5-yl)methyl]-1H-pyrrole-3-carboxamide] | 3200 nM | 14 mV
15 | Cc1ccccc1S(=O)(=O)n1ccc(C(=O)NCc2cnn(C)c2)c1 [Compound 76, 1-(2-methylbenzene-1-sulfonyl)-N-[(1-methyl-1H-pyrazol-4-yl)methyl]-1H-pyrrole-3-carboxamide] | 3600 nM | 17 mV
16 | Cc1ccc(CNC(=O)c2ccn(S(=O)(=O)c3ccccc3C)c2)nc1 [Compound 77, 1-(2-methylbenzene-1-sulfonyl)-N-[(5-methylpyridin-2-yl)methyl]-1H-pyrrole-3-carboxamide] | 3300 nM | 12 mV
17 | Cc1cc(CNC(=O)c2ccn(S(=O)(=O)c3ccccc3C)c2)on1 [Compound 78, 1-(2-methylbenzene-1-sulfonyl)-N-[(3-methyl-1,2-oxazol-5-yl)methyl]-1H-pyrrole-3-carboxamide] | 1900 nM | 17 mV
18 | Cc1cnc(CNC(=O)c2ccn(S(=O)(=O)c3ccccc3C)c2)o1 [Compound 80, 1-(2-methylbenzene-1-sulfonyl)-N-[(5-methyl-1,3-oxazol-2-yl)methyl]-1H-pyrrole-3-carboxamide] | 2800 nM | 12 mV
19 | O=C(NCc1cnccn1)c1ccn(S(=O)(=O)c2ccc(Cl)cc2)c1 [Compound 81, 1-(4-chlorobenzene-1-sulfonyl)-N-[(pyrazin-2-yl)methyl]-1H-pyrrole-3-carboxamide] | 1000 nM | 28 mV
20 | Cn1ccc(CNC(=O)c2ccn(S(=O)(=O)c3ccccc3)c2)n1 [Compound 82, 1-(benzenesulfonyl)-N-[(1-methyl-1H-pyrazol-3-yl)methyl]-1H-pyrrole-3-carboxamide] | 4100 nM | 14 mV
21 | Cc1ccc(CNC(=O)c2ccn(S(=O)(=O)c3ccccc3)c2)nc1 [Compound 83, 1-(benzenesulfonyl)-N-[(5-methylpyridin-2-yl)methyl]-1H-pyrrole-3-carboxamide] | 5000 nM | 13 mV
22 | Cc1cc(CNC(=O)c2ccn(S(=O)(=O)c3ccccc3)c2)on1 [Compound 84, 1-(benzenesulfonyl)-N-[(3-methyl-1,2-oxazol-5-yl)methyl]-1H-pyrrole-3-carboxamide] | 4600 nM | 12 mV
23 | Cc1ccc(CNC(=O)c2ccn(S(=O)(=O)c3ccc(F)cc3)c2)cn1 [Compound 85, 1-(4-fluorobenzene-1-sulfonyl)-N-[(6-methylpyridin-3-yl)methyl]-1H-pyrrole-3-carboxamide] | 3100 nM | 18 mV
24 | Cc1ccc(S(=O)(=O)n2cc(C(=O)NCc3cnc(C)cn3)cc2F)cc1 [Compound 87, 5-fluoro-1-(4-methylbenzene-1-sulfonyl)-N-[(5-methylpyrazin-2-yl)methyl]-1H-pyrrole-3-carboxamide] | 4000 nM | 15 mV
25 | Cc1ccc(S(=O)(=O)n2ccc(C(=O)NCc3cnc(C)cn3)c2F)cc1 [Compound 88, 2-fluoro-1-(4-methylbenzene-1-sulfonyl)-N-[(5-methylpyrazin-2-yl)methyl]-1H-pyrrole-3-carboxamide] | 2000 nM | 23 mV
